Tests used:
[1] = system: Echinochloa crus-galli (L.) Beauv. var. crusgall (Ec); test: Test for herbicidal effect by upland field soil treatment (Test Example 2), Ec; format: in vivo
Procedure, shortened: (§1)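 Pre-emergence soil treatment: wettable powder diluted in water and sprayed on soil just sown with Ec and Se seeds, delivering 100 g active ingredient per 10 ares in 100 liters per 10 ares. Herbicidal effect was rated against a fixed scale 21 days later, after greenhouse growth.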

[2] = system: Setaria viridis (L.) Beauv. (Se); test: Test for herbicidal effect by upland field soil treatment (Test Example 2), Se; format: in vivo
Procedure, shortened: as §1

[3] = system: Echinochloa oryzicola Vasing. (Eo); test: Test for herbicidal effect by paddy field soil treatment (Test Example 1); format: in vivo; conditions: application amount (active ingredient) 100 g/10 a, examined at the 21st day from the treatment, index per Table 40
Procedure, shortened: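 Scored on a standard scale at day 21 in the greenhouse: herbicidal effect of wettable powder applied to flooded water (3 cm depth) at 100 g a.i./10 ares, one day after sowing Eo into puddled paddy soil.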

[4] = system: Chenopodium album L. (Ch); test: Test for herbicidal effect to broadleaf weeds by upland field soil treatment (Test Example 6), Ch; format: in vivo; conditions: 25 g/10 a active ingredient, 30th day
Method: (§2) Test for herbicidal effect to broadleaf weeds by upland field soil treatment
(§3) An upland field soil was filled in a plastic pot of 80 cm^2. Seeds of Polygonum lapathifolium L. subsp. nodosum (Pers.) Kitam. (Po) and Chenopodium album L. (Ch) were sowed, followed by covering with the same soil. Wettable powders produced in accordance with the Formulation 1 were diluted with water and sprayed uniformly on the soil surface using a small sprayer, […] Then, breeding was made in a greenhouse. At the 30th day from the treatment, the herbicidal effect of each wettable powder was examined in accordance with the standard shown in Table 40.

[5] = system: Scirpus juncoides Roxb. subsp. juncoides Roxb. (Sc); test: Test for herbicidal effect during breeding period by paddy field water treatment (Test Example 5), Sc; format: in vivo; conditions: paddy field water treatment at 2-leaf stage, 25 g/10 a active ingredient, 30th day
Method: (§4) [table] <Test Example 5> Test For Herbicidal Effect During Breeding Period By Paddy Field Water Treatment A paddy field soil was filled in a plastic pot of 100 cm^2 and subjected to puddling. Seeds of Monochoria vaginalis Presl (Mo) and Scirpus juncoides Roxb. subsp. juncoides Roxb. (Sc) were sowed; water was filled in a depth of 3 cm; and breeding was made. When Mo reached a 1-leaf stage and Sc reached a 2-leaf stage, wettable powders produced in accordance with the Formulation 1 were diluted with water and dropped on the water surface. […] Then, breeding was made in a greenhouse. At the 30th day from the treatment, the herbicidal effect of each wettable powder was examined in accordance with the standard shown in Table 40.

[6] = system: Monochoria vaginalis Presl (Mo); test: Test for herbicidal effect during breeding period by paddy field water treatment (Test Example 5), Mo; format: in vivo; conditions: paddy field water treatment at 1-leaf stage, 25 g/10 a active ingredient, 30th day
Method: as §4

[7] = system: Echinochloa crus-galli (L.) Beauv. var. crusgalli (Ec); test: Test for herbicidal effect by upland foliage treatment (Test Example 3); format: in vivo; conditions: 100 g/10 a active ingredient, examined at 14th day
Procedure, shortened: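 Scored 14 days post-spray against a graded standard: greenhouse-grown Ec, 2 weeks old in upland soil, received whole-foliage application of diluted wettable powder (100 g active ingredient per 10 ares, spray volume 100 L per 10 ares).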

[8] = system: Polygonum lapathifolium L. subsp. nodosum (Pers.) Kitam. (Po); test: Test for herbicidal effect to broadleaf weeds by upland field soil treatment (Test Example 6), Po; format: in vivo; conditions: 25 g/10 a active ingredient, 30th day
Method: as §2, §3

[9] = application amount (active ingredient) 100 g/10 a, examined at the 21st day from the treatment, index per Table 40
[10] = 100 g/10 a active ingredient, examined at 21st day

Compound	Herbicidal effect to Ec [1, 9]	Herbicidal effect to Se [2, 9]	melting point [°C]	Herbicidal effect to Eo [3]	Herbicidal effect to Ch [4]	Herbicidal effect to Sc [5]	Herbicidal effect to Mo [6]	Herbicidal effect to Ec [7]	Herbicidal effect to Po [8]	Herbicidal effect to Ec [1, 10]	Herbicidal effect to Se [2, 10]
CC1(C)CC(SCc2c(F)cccc2F)=NO1 [Compound 1-38, 3-(2,6-difluorobenzylthio)-5,5-dimethyl-2-isoxazoline]	4 (A herbicidal effect or phytotoxicity of 70% to less than 90%)	4 (A herbicidal effect or phytotoxicity of 70% to less than 90%)	77 to 80	5 (A herbicidal effect or phytotoxicity of 90% or more)							
CC1(C)CC(S(=O)(=O)Cc2c(F)cccc2F)=NO1 [Compound 1-39, 3-(2,6-difluorobenzylsulfonyl)-5,5-dimethyl-2-isoxazoline]	5 (A herbicidal effect or phytotoxicity of 90% or more)	5 (A herbicidal effect or phytotoxicity of 90% or more)		5 (A herbicidal effect or phytotoxicity of 90% or more)	5 (A herbicidal effect or phytotoxicity of 90% or more)	5 (A herbicidal effect or phytotoxicity of 90% or more)	5 (A herbicidal effect or phytotoxicity of 90% or more)	5 (A herbicidal effect or phytotoxicity of 90% or more)	4 (A herbicidal effect or phytotoxicity of 70% to less than 90%)		
CC(C)Oc1ccccc1CS(=O)(=O)C1=NOC(C)(C)C1 [Compound 1-49]	5 (A herbicidal effect or phytotoxicity of 90% or more)	5 (A herbicidal effect or phytotoxicity of 90% or more)		5 (A herbicidal effect or phytotoxicity of 90% or more)		5 (A herbicidal effect or phytotoxicity of 90% or more)	5 (A herbicidal effect or phytotoxicity of 90% or more)	5 (A herbicidal effect or phytotoxicity of 90% or more)			
CCc1ccccc1CS(=O)(=O)C1=NOC(C)(C)C1 [Compound 1-8]	5 (A herbicidal effect or phytotoxicity of 90% or more)	5 (A herbicidal effect or phytotoxicity of 90% or more)		5 (A herbicidal effect or phytotoxicity of 90% or more)		4 (A herbicidal effect or phytotoxicity of 70% to less than 90%)	5 (A herbicidal effect or phytotoxicity of 90% or more)	5 (A herbicidal effect or phytotoxicity of 90% or more)			
CC1(C)CC(S(C)(=O)=O)=NO1 [Compound 2-1, 3-methylsulfonyl-5,5-dimethyl-2-isoxazoline]			82 to 84								
CC1(C)CC(S(=O)(=O)Cc2ccccc2OC(F)(F)F)=NO1 [Compound 1-58]	5 (A herbicidal effect or phytotoxicity of 90% or more)	5 (A herbicidal effect or phytotoxicity of 90% or more)		5 (A herbicidal effect or phytotoxicity of 90% or more)		5 (A herbicidal effect or phytotoxicity of 90% or more)	4 (A herbicidal effect or phytotoxicity of 70% to less than 90%)	5 (A herbicidal effect or phytotoxicity of 90% or more)			
CC1(C)CC(S(=O)(=O)Cc2ccccc2C(F)(F)F)=NO1 [Compound 1-157]	5 (A herbicidal effect or phytotoxicity of 90% or more)	5 (A herbicidal effect or phytotoxicity of 90% or more)		5 (A herbicidal effect or phytotoxicity of 90% or more)		5 (A herbicidal effect or phytotoxicity of 90% or more)	5 (A herbicidal effect or phytotoxicity of 90% or more)	5 (A herbicidal effect or phytotoxicity of 90% or more)			
CC1(C)CC(S(=O)(=O)Cc2c(Cl)cccc2OCC(F)(F)F)=NO1 [Compound 1-567]				5 (A herbicidal effect or phytotoxicity of 90% or more)		5 (A herbicidal effect or phytotoxicity of 90% or more)	5 (A herbicidal effect or phytotoxicity of 90% or more)	4 (A herbicidal effect or phytotoxicity of 70% to less than 90%)		5 (A herbicidal effect or phytotoxicity of 90% or more)	5 (A herbicidal effect or phytotoxicity of 90% or more)

From US6841519B1, “Isoxazoline derivatives and herbicides containing the same as the active ingredient” (Kumiai Chemical Industry Co., Ltd., priority 1999, dated 2005)
